Source: PubChem BioAssay AID248 (DTP/NCI, 2004)
Values joined by “and” are separate entries in the source; they are usually repeats but may differ in a detail not shown here. Equal entries are not always repeated. Inconclusive results and toxic doses are left out. Cut-off read from the data, not from the text of the source: active = T/C of 150% or more; inactive = T/C below 125%.

Tested on: L1210 leukemia ip in BDF1 mice, survival T/C
Experiment: NCI In Vivo Anticancer Drug Screen. Data for tumor model L1210 Leukemia (intraperitoneal) in B6D2F1 (BDF1) mice
Conditions: endpoint: mean survival time, higher = longer survival
In short: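 Value reflects the ratio of survival in compound-treated mice to survival in vehicle-treated controls, with both groups carrying the same transplanted tumor.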

[1] = dose: 100.0 mg/kg/injection, schedule: Q01DX001 (ip), vehicle: saline
[2] = dose: 200.0 mg/kg/injection, schedule: Q01DX001 (ip), vehicle: saline
[3] = dose: 400.0 mg/kg/injection, schedule: Q01DX001 (ip), vehicle: saline
[4] = dose: 100.0 mg/kg/injection, schedule: Q04DX003 (ip), vehicle: saline with Tween-80
[5] = dose: 200.0 mg/kg/injection, schedule: Q04DX003 (ip), vehicle: saline with Tween-80
[6] = dose: 400.0 mg/kg/injection, schedule: Q04DX003 (ip), vehicle: saline with Tween-80
[7] = dose: 100.0 mg/kg/injection, schedule: Q01DX009 (ip), vehicle: saline
[8] = dose: 100.0 mg/kg/injection, schedule: Q04DX003 (ip), vehicle: saline
[9] = dose: 200.0 mg/kg/injection, schedule: Q01DX009 (ip), vehicle: saline
[10] = dose: 200.0 mg/kg/injection, schedule: Q04DX003 (ip), vehicle: saline
[11] = dose: 100.0 mg/kg/injection, schedule: Q04DX003 (ip), vehicle: Klucel (hydroxypropylcellulose) (HPC)
[12] = dose: 200.0 mg/kg/injection, schedule: Q04DX003 (ip), vehicle: Klucel (hydroxypropylcellulose) (HPC)
[13] = dose: 400.0 mg/kg/injection, schedule: Q04DX003 (ip), vehicle: Klucel (hydroxypropylcellulose) (HPC)
[14] = dose: 100.0 mg/kg/injection, schedule: Q01DX009 (ip), vehicle: Klucel (hydroxypropylcellulose) (HPC)
[15] = dose: 200.0 mg/kg/injection, schedule: Q01DX009 (ip), vehicle: Klucel (hydroxypropylcellulose) (HPC)
[16] = dose: 400.0 mg/kg/injection, schedule: Q01DX009 (ip), vehicle: Klucel (hydroxypropylcellulose) (HPC)
[17] = dose: 100.0 mg/kg/injection, schedule: Q04DX003 (ip), vehicle: other
[18] = dose: 50.0 mg/kg/injection, schedule: Q01DX009 (ip), vehicle: saline
[19] = dose: 25.0 mg/kg/injection, schedule: Q04DX003 (ip), vehicle: Klucel (hydroxypropylcellulose) (HPC)
[20] = dose: 50.0 mg/kg/injection, schedule: Q04DX003 (ip), vehicle: Klucel (hydroxypropylcellulose) (HPC)

Measured: T/C

N#CCC(=O)N1CCCC1
inactive: dose: 50.0 mg/kg/injection, schedule: Q01DX001 (ip), vehicle: saline 95 % of control | [1] 104 % of control | [2] 98 % of control | [3] 95 % of control

COc1cc(OC)c2c(c1Cl)OC1(C(=O)C=CCC1C)C2=O (centres undefined)
inactive: [4] 98 % of control | [5] 104 % of control | [6] 96 % of control

Nc1n[nH]c(N)n1.[Co]
inactive: dose: 50.0 mg/kg/injection, schedule: Q04DX003 (ip), vehicle: saline 103 % of control | [7] 100 % of control | [8] 100 % of control | [9] 94 % of control | [10] 108 % of control | dose: 400.0 mg/kg/injection, schedule: Q01DX009 (ip), vehicle: saline 107 % of control | dose: 400.0 mg/kg/injection, schedule: Q04DX003 (ip), vehicle: saline 105 % of control

O=C1c2ccccc2C2(c3ccccc3)C=NNC12c1ccccc1 (centres undefined)
inactive: dose: 100.0 mg/kg/injection, schedule: Q01DX001 (ip), vehicle: Klucel (hydroxypropylcellulose) (HPC) 103 % of control | [11] 106 % of control | dose: 200.0 mg/kg/injection, schedule: Q01DX001 (ip), vehicle: Klucel (hydroxypropylcellulose) (HPC) 98 % of control | [12] 97 % of control | dose: 400.0 mg/kg/injection, schedule: Q01DX001 (ip), vehicle: Klucel (hydroxypropylcellulose) (HPC) 95 % of control | [13] 103 % of control

Cc1ccc(OCCOc2ccc(NC(=O)CC(=O)c3cccc([N+](=O)[O-])c3)cc2)cc1
inactive: [14] 100 % of control | [11] 95 % of control | [15] 103 % of control | [12] 98 % of control | [16] 97 % of control | [13] 97 % of control

CCCCCCCCCCCCCCCC[N+]1(CC)CCCC1
inactive: dose: 25.0 mg/kg/injection, schedule: Q04DX002 (ip), vehicle: saline 96 % of control | dose: 50.0 mg/kg/injection, schedule: Q04DX002 (ip), vehicle: saline 96 % of control

Cc1nc2ccc(Cl)cc2c(=O)[nH]1
inactive: dose: 100.0 mg/kg/injection, schedule: Q01DX001 (ip), vehicle: other 102 % of control | [17] 96 % of control | dose: 200.0 mg/kg/injection, schedule: Q01DX001 (ip), vehicle: other 96 % of control | dose: 200.0 mg/kg/injection, schedule: Q04DX003 (ip), vehicle: other 96 % of control | dose: 400.0 mg/kg/injection, schedule: Q01DX001 (ip), vehicle: other 104 % of control | dose: 400.0 mg/kg/injection, schedule: Q04DX003 (ip), vehicle: other 96 % of control

O=P(Oc1ccccc1)(N1CCCC1)N1CCCC1
inactive: [18] 100 % of control | [7] 91 % of control | dose: 100.0 mg/kg/injection, schedule: Q04DX002 (ip), vehicle: saline 100 % of control | [9] 98 % of control | dose: 200.0 mg/kg/injection, schedule: Q04DX002 (ip), vehicle: saline 95 % of control

NCc1ccc([N+](=O)[O-])cc1
inactive: [18] 93 % of control | [1] 96 % of control | [7] 96 % of control | [8] 101 % of control | [2] 104 % of control | [9] 110 % of control | [10] 93 % of control

CC(=O)Oc1c(OC(C)=O)c(C=O)c2c(OC(C)=O)c(-c3c(C)cc4c(C(C)C)c(OC(C)=O)c(OC(C)=O)c(C=O)c4c3OC(C)=O)c(C)cc2c1C(C)C
inactive: dose: 6.25 mg/kg/injection, schedule: Q01DX009 (ip), vehicle: Klucel (hydroxypropylcellulose) (HPC) 102 % of control | dose: 12.5 mg/kg/injection, schedule: Q01DX009 (ip), vehicle: Klucel (hydroxypropylcellulose) (HPC) 97 % of control | dose: 25.0 mg/kg/injection, schedule: Q01DX009 (ip), vehicle: Klucel (hydroxypropylcellulose) (HPC) 100 % of control and 105 % of control | [19] 93 % of control | [20] 90 % of control | [11] 95 % of control and 104 % of control

O=C(O)C1CCCCN1[N+](=O)[O-] (centres undefined)
inactive: [1] 96 % of control | [2] 100 % of control | [3] 100 % of control

CC1CCc2[nH]c3ccc4ccccc4c3c2C1 (centres undefined)
inactive: [19] 98 % of control | [20] 95 % of control | [11] 93 % of control

Cc1ccc(S(=O)(=O)Oc2ccc(I)cc2)cc1
inactive: [14] 107 % of control | [11] 100 % of control | [15] 98 % of control | [12] 105 % of control | [16] 103 % of control | [13] 97 % of control

Cc1ccccc1C(c1ccccc1C)c1ccccc1C(=O)O
inactive: dose: 100.0 mg/kg/injection, schedule: Q01DX009 (ip), vehicle: saline with Tween-80 103 % of control | [4] 105 % of control | dose: 200.0 mg/kg/injection, schedule: Q01DX009 (ip), vehicle: saline with Tween-80 100 % of control | [5] 93 % of control | dose: 400.0 mg/kg/injection, schedule: Q01DX009 (ip), vehicle: saline with Tween-80 97 % of control | [6] 98 % of control

CCC1=CC(=O)C(C)=C(C)C1=O
inactive: dose: 25.0 mg/kg/injection, schedule: Q04DX003 (ip), vehicle: other 100 % of control | dose: 50.0 mg/kg/injection, schedule: Q04DX003 (ip), vehicle: other 102 % of control | [17] 97 % of control and 102 % of control

C[Si](C)(C)C1C2c3ccccc3C1C1(C#N)C(=O)C(Cl)=C(Cl)C(=O)C21C#N (centres undefined)
inactive: [4] 93 % of control
